Experimental data taken from paper PMC5746060, “General and Modular Strategy for Designing Potent, Selective, and Pharmacologically Compliant Inhibitors of Rhomboid Proteases” (Cell Chemical Biology, 2017).
“And” between values parts separate entries of the source, which are not always exact repeats. Equal entries are not always repeated. Where two headings read alike, the source gives them in different places. Starred links: 1 amine or outer side, 2 acyl side, 3 side chain; linkers in the order of their positions; H or OH if unused. Non-standard residues stand in square brackets, D forms with d. Residues, ends and D or L forms follow the SMILES beside them. *: point of attachment. NH(4-phenylbutyl) = c1ccc(CCCCN*)cc1; X1 = C[C@H](N[*:1])C(=O)C(=O)[*:2]; NHPhenethyl = c1ccc(CCN*)cc1

Experiments:
TmROM = test: activity-based probe competition assay, rhomboid panel; assay type: biochemical, Thermotoga maritima; settings: 50 μM
Source text: Any enzyme inhibitors to be used as specific tools for cell biology or as starting points for drug development must show sufficient level of selectivity toward their intended target. This is particularly important for compounds that react with the catalytic nucleophile common to many serine hydrolases. Only limited tests of selectivity have been conducted for the currently used rhomboid inhibitors isocoumarins, β-lactams and β-lactones, at best interrogating them against trypsin or chymotrypsin ([Pierrat et al., 2011], [Vosyka et al., 2013]). […]
Figure 5 Selectivity of Peptidyl Ketoamides (A) Selectivity of compounds 9, 10, and 11 for nine rhomboid proteases was profiled using activity-based probe competition assay at 50 μM and 0.5 μM concentration. […] (B) Selectivity of compounds 9, 10, and 11 against human serine hydrolases was analyzed using EnPlex as described ([Bachovchin et al., 2014]).
For inhibitor selectivity profiling against rhomboid proteases ([Wolf et al., 2015]), 400 ng of a purified protein preparation of E. coli GlpG was diluted in 30 μL of reaction buffer (20 mM HEPES, pH 7.4, with 0.05% (w/v) DDM). […] Gels were scanned on a Typhoon Trio+ and analyzed using ImageJ. The intensity of each rhomboid protease band calculated by ImageJ was normalized against its corresponding DMSO-treated counterpart (100% activity) to indicate the residual activity left after inhibition. […]

rhomboid protease GlpG = molecular target: T1, rhomboid protease GlpG (Escherichia coli, UniProt P09391); test: progress-curve analysis of slow-binding inhibition of GlpG (Ki, kon, koff, modality); assay type: biochemical; settings: for Ki: true inhibitory constant, equals Kiapp (non-competitive); for koff: Table 1
T1 construct: made in house; host or cells: E. coli C41(DE3)
T1 sequence (P09391 whole entry): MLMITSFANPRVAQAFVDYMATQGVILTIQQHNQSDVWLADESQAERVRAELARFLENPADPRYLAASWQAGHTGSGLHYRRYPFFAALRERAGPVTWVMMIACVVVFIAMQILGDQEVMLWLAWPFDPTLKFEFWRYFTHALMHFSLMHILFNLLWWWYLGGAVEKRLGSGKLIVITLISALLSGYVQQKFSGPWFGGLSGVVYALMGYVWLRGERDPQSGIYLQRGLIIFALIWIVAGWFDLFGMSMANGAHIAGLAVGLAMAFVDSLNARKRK
Experimental: Figure 4 Mechanism of Inhibition of Rhomboid Protease GlpG by Peptidyl Ketoamides Analyzed Using Fluorogenic Transmembrane Peptide Substrates (A) Progress curves in the presence of increasing concentrations of compound 10 show biphasic character, which is typical for slow-binding inhibitors ([Copeland, 2013a], [Morrison, 1982]). GlpG (0.5 nM) was incubated with 25 μM substrate KSp93 in the presence of 0.05% (w/v) DDM and 0–1,333 nM 10. Fluorescence at 493 nm was followed to monitor substrate cleavage. (B) Biphasic progress curves characterized by an initial reaction rate (vi) and steady state reaction rate (vs). The progress curve at 1,333 nM compound 10 from the experiment in (A) is shown in detail, and both reaction rates obtained from non-linear regression into Equation (1) are shown as dotted lines. (C) Reversibility of inhibition by ketoamides was assessed by the rapid dilution method ([Harper et al., 1985], [Harper and Powers, 1985]). […] This solution was then rapidly diluted 100-fold either into the reaction buffer containing 10 μM substrate KSp64 ([Ticha et al., 2017]) (yielding final 10 nM inhibitor) or into the reaction buffer with 10 μM substrate KSp64 and 1,000 nM 10. For comparison, we used β-lactam L29 ([Pierrat et al., 2011]) at 1 μM and isocoumarin JLK6 ([Vinothkumar et al., 2010]) at 10 μM as known reversible and irreversible inhibitors of rhomboid proteases, respectively. Activity recovery was followed by measuring fluorescence over the course of 120 min with excitation at 553 nm and emission at 583 nm. (D) Progress curves of KSp93 cleavage at increasing concentrations of 10 measured under (A) were analyzed by non-linear regression as described for slow-binding inhibition ([Copeland, 2013a], [Morrison, 1982]) using GraphPad Prism version 7.02 for Windows (GraphPad Software, La Jolla, California, USA) to yield the rate constant for the onset of inhibition, kobs. […] Michaelis curves at the indicated inhibitor concentrations were measured by plotting vS (measured as in Figure 4B) against substrate concentration using 1 nM GlpG, 0.15% (w/v) DDM and highly sensitive substrate KSp96. […] The apparent inhibitory constants Kiapp (blue-red striped columns) and the constituent rate constants kon (red columns) and koff (blue columns) were determined from progress curve analysis as shown in (A and C) (note that Kiapp = koff/kon). […] TEXT PRINTED IN THE PICTURE: (D) compound 10: Ki^app = (123±47) nM; kon = (3.4±0.2)·10^-5 (nM^-1·min^-1); koff = (4.2±1.4)·10^-3 (min^-1) DOUBTS OF THE COPYIST ABOUT THIS PICTURE: compound 10, kon: the exponent is in very small print, read as -5 but could be -6 or -8 / compound 10, koff: the exponent is in very small print, read as -3 but could be -5 […]

Structure (SMILES) | inhibition of ABP labeling of TmROM (TmROM) | Ki (rhomboid protease GlpG; Ki) [nM] | koff (rhomboid protease GlpG) [s⁻¹] | Ki (rhomboid protease GlpG; read-out: Ki)
CC(=O)N[C@@H](CCCNC(=N)N)C(=O)N[C@H](C(=O)N[C@@H](CCCNC(=N)N)C(=O)N[C@@H](Cc1c[nH]cn1)C(=O)N[C@@H](C)C(=O)C(=O)NCCCCc1ccccc1)C(C)C [compound 11, Ac-RVRHA-CONH-phenylbutyl] (Ac-RVRH[X1]-{NH(4-phenylbutyl)}) | only partially inhibited | 45 ± 8 | 6.5e-05 | 
CC(=O)N[C@@H](CCCNC(=N)N)C(=O)N[C@H](C(=O)N[C@@H](CCCNC(=N)N)C(=O)N[C@@H](Cc1c[nH]cn1)C(=O)N[C@@H](C)C(=O)C(=O)NCCc1ccccc1)C(C)C [compound 9, Ac-RVRHA-CONH-phenylethyl] (Ac-RVRH[X1]-NHPhenethyl) | only partially inhibited |  | 0.0002 | 219 nM and 220 nM
